The values below come from patent US12319655B2, “RAF kinase inhibitors and methods of use thereof” (Deciphera Pharmaceuticals, LLC, priority 2021, dated 2025).

Usually IC50 stands for the concentration that inhibits the measured activity by half.

The target in experiment [1] is C-Raf kinase (SEQ. ID NO: 3) (Homo sapiens (Human), UniProt P04049, Y340D/Y341D). Nature of the experiment: Biochemical Assay for C-Raf (1). Particulars: Table J, assay version (1); read-out: CRAF (1) IC50. The essentials:
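IC50 values come from a four-parameter fit of percent inhibition, using the reaction rate over 4–5 h of a 6 h continuous 340 nm read at 30 °C. The enzyme mix was C-Raf 0.43 nM, MEK substrate 30.1 nM and ATP 1 mM, in a PK/LDH NADH-coupled format in Tris pH 7.5 with 1% DMSO.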

Experiment [2] deals with B-Raf (V600E) (SEQ. ID NO: 4) kinase (Homo sapiens (Human), UniProt P15056, V600E). As to the kind of experiment: Biochemical Assay for B-Raf (V600E) (1). Particulars: Table J, BRAF V600E, assay version (1); read-out: BRAF VE (1) IC50. In outline:
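Serially diluted compounds tested against 0.03 nM enzyme with 30.1 nM MEK substrate and 1 mM ATP (Tris pH 7.5, 15 mM MgCl2), ATP use coupled to NADH loss via PK/LDH. A340 monitored continuously 6 h, 30 °C; IC50 fitted (four-parameter) from the 3–4 h rate versus no-compound and known-inhibitor controls.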

Experiment [3] has as its system A375 cells. As to the kind of experiment: A375 Cell Proliferation Assay (1). Type of experiment: cell-based. Particulars: Homo sapiens, A-375. The essentials:
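Resazurin fluorescence (excitation 540 nm, emission 600 nm, after a further 5-6 h) gave IC50s from triplicate compound dilution series.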

Experiment [4] relates to H2405 cells. Nature of the experiment: H2405 Cell Proliferation Assay (1). Format: cell-based. Particulars: Homo sapiens, NCI-H2405. In outline: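 Viability was read by resazurin reduction (ex 540 nm, em 600 nm; 5-6 h with 40 μL of 440 μM stock) after 67-72 h compound exposure at 37 °C.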

SMILES strings stand for the structures.

Chain of C-Raf kinase (SEQ. ID NO: 3) (P04049 307-648 Y340D/Y341D): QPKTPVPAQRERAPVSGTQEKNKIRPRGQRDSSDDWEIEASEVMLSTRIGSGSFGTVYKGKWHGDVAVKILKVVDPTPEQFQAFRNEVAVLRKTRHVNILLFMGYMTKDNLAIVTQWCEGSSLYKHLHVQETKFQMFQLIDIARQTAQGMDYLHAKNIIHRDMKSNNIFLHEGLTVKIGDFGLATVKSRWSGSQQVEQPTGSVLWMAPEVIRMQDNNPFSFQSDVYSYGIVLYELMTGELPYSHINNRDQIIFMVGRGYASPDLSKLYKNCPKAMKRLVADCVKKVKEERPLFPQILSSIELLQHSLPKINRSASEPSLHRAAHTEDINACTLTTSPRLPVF
Chain of B-Raf (V600E) (SEQ. ID NO: 4) kinase (P15056 416-766 V600E): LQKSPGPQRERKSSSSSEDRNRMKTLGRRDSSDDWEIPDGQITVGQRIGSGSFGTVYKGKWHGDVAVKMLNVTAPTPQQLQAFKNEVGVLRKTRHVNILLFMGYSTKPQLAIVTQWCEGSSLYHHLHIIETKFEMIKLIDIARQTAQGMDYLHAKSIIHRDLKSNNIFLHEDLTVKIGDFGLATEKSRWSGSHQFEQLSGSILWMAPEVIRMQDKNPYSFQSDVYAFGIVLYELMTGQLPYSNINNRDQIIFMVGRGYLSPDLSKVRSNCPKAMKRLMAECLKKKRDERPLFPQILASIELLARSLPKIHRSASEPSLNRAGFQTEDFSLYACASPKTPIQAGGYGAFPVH

On to `COC(=O)Nc1cc(-c2cnnc(-c3cc(NC(=O)c4ccnc(C(C)(C)F)c4)cnc3C)c2)ccn1` [Example 361], for which the half-inhibitory concentration (IC50) is at most 100 nM in experiment [1], 100 to 500 nM in experiment [2], 1000 to 10000 nM in experiment [3] and 500 to 1000 nM in experiment [4].
For the molecule `COC(=O)Nc1cc(-c2cnnc(-c3cc(NC(=O)c4ccnc(C5CC5)c4)cnc3C)c2)ccn1` [Example 362], the IC50 in experiment [1] is at most 100 nM; in experiment [2], 1000 to 10000 nM; in experiment [3] it was 1000 to 10000 nM; in experiment [4], 1000 to 10000 nM.
In the case of `COC(=O)Nc1cc(-c2cnnc(-c3cc(NC(=O)c4ccnc(C(F)F)c4)cnc3C)c2)ccn1` [Example 363], the concentration for half-maximal inhibition (IC50) in experiment [1] fell in the range of 100 to 500 nM; in experiment [2] it was 1000 to 10000 nM; in experiment [3], 1000 to 10000 nM; in experiment [4], 1000 to 10000 nM.
Regarding `CNC(=O)c1cc(-c2cnnc(-c3cc(NC(=O)c4ccnc(C(F)(F)F)c4)ccc3C)c2)ccn1` [Example 364], the IC50 in experiment [1] was 100 to 500 nM; in experiment [2], 100 to 500 nM; in experiment [3], 1000 to 10000 nM; in experiment [4], 500 to 1000 nM.
Consider `COCCNC(=O)c1cc(-c2cnnc(-c3cc(NC(=O)c4cccc(C5CC5)c4)ccc3C)c2)ccn1` [Example 365], for which the IC50 in experiment [1] was 100 to 500 nM; in experiment [2], 500 to 1000 nM; in experiment [3] it was 1000 to 10000 nM; in experiment [4], 1000 to 10000 nM.
With `CNC(=O)c1cc(-c2cnnc(-c3cc(NC(=O)c4cn(C(C)(C)C)nn4)ccc3C)c2)ccn1` [Example 366], the IC50 in experiment [1] lay in the range of 100 to 500 nM; in experiment [2], 100 to 500 nM; in experiment [3] it was 1000 to 10000 nM; in experiment [4], 1000 to 10000 nM.
For the molecule `Cc1ccc(NC(=O)c2cc(C(C)(C)C)no2)cc1-c1cc(-c2ccnc(NC(=O)C3CC3)c2)cnn1` [Example 367], the IC50 was at most 100 nM in experiment [1], at most 100 nM in experiment [2], 100 to 500 nM in experiment [3] and 100 to 500 nM in experiment [4].
On to `COC(=O)Nc1cc(-c2cnnc(-c3cc(NC(=O)CC4CCCC4)cnc3C)c2)ccn1` [Example 368], for which the half-inhibitory concentration (IC50) in experiment [1], in experiment [2], in experiment [3] and in experiment [4] was 1000 to 10000 nM each time.
As for `Cc1ccc(NC(=O)c2ccnc(C(C)(C)C#N)c2)cc1-c1cc(-c2ccnc3[nH]ccc23)cnn1` [Example 369], the IC50 in experiment [1] is at most 100 nM; in experiment [2], at most 100 nM; in experiment [3], 1000 to 10000 nM; in experiment [4], 500 to 1000 nM.
As to `Cc1ccc(NC(=O)C2CCOC(C(C)C)C2)cc1-c1cc(-c2ccnc(NC(=O)C3CC3)c2)cnn1` (stereo not drawn) [Example 370], the IC50 in experiment [1] was at most 100 nM; in experiment [2] it was at most 100 nM; in experiment [3] it was 1000 to 10000 nM; in experiment [4], 500 to 1000 nM.
On to `CNC(=O)c1cc(-c2cc(-c3cc(NC(=O)c4ccnc(C(C)(C)F)c4)ccc3C)cnc2C)ccn1` [Example 371], for which the IC50 in experiment [1] was 100 to 500 nM; in experiment [2], at most 100 nM; in experiment [3], 100 to 500 nM; in experiment [4] it was 100 to 500 nM.
Consider `Cc1ccc(NC(=O)c2ccnc(C(C)(C)C#N)c2)cc1-c1cc(-c2ccnc(C(=O)NC3CC3)c2)cnn1` [Example 372], for which the IC50 in experiment [1] is 500 to 1000 nM; in experiment [2] it was 100 to 500 nM; in experiment [3] it was 1000 to 10000 nM; in experiment [4] it was 1000 to 10000 nM.
